Strand notation (5' to 3'): a small letter for the sugar, then the base; units joined by * are phosphorothioate-linked, units joined directly phosphodiester-linked; [ ] holds rarer units or linkages, { } end groups; capitals alone tell only the bases. e = 2'-O-(2-methoxyethyl) (MOE); [5mC] = 5-methylcytosine; d = 2'-deoxy (DNA)

These results are taken from US11840686B2, “Modulation of prekallikrein (PKK) expression” (Ionis Pharmaceuticals, Inc., priority 2013, dated 2023).

The first data set has as its system human PKK mRNA. Kind of data set: Antisense inhibition of human PKK mRNA in HepaRG cells, 5,000 nM (Example 2). The class given is cell-based. The note with it: HepaRG cells, 5,000 nM antisense oligonucleotide; 5-10-5 gapmers; Table 16. The essentials:
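HepaRG cells (20,000/well) electroporated with 5,000 nM MOE gapmer (phosphorothioate backbone, 5-methylcytosines) and harvested after ~24 h. PKK mRNA measured by qRT-PCR with primer probe set RTS3454, normalized to RIBOGREEN total RNA; percent inhibition versus untreated cells.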
One may read the % inhibition as the drop in the measured response relative to a control, in per cent. A high value points to strong suppression. As for “547716 (e[5mC]*e[5mC]*eA*eT*e[5mC]*dT*dG*dT*d[5mC]*d[5mC]*d[5mC]*d[5mC]*dT*d[5mC]*dA*eA*eT*e[5mC]*e[5mC]*e[5mC]; antisense) [compound 547716]”, the “% inhibition” value came out at 9%.
With “547717 (eA*e[5mC]*eT*e[5mC]*eT*dG*dG*d[5mC]*dA*d[5mC]*dT*dG*dG*dT*d[5mC]*eA*eT*eG*eG*eA; antisense) [compound 547717]”, the “% inhibition” value was 54%.
For “547719 (eT*eA*e[5mC]*e[5mC]*eA*dA*dG*d[5mC]*dT*dT*dG*dT*dA*dG*dA*eA*eG*eG*eG*eA; antisense) [compound 547719]”, the “% inhibition” value was found to be 69%.
As for “547720 (eG*eA*eA*eA*eG*dA*d[5mC]*dG*dG*d[5mC]*d[5mC]*dA*dA*dT*dG*eG*eG*eA*eA*eA; antisense) [compound 547720]”, the “% inhibition” value came to 8%.
Still for that read-out and setting: under “547721 (e[5mC]*eT*e[5mC]*eT*eA*dT*d[5mC]*dA*dA*dA*dA*dT*d[5mC]*d[5mC]*dT*eG*e[5mC]*eT*eG*e[5mC]; antisense) [compound 547721]” stands 68%.

Still in this data set, the particulars now being: HepaRG cells, 5,000 nM antisense oligonucleotide; 5-10-5 gapmers; Table 17.
“547723 (eT*eA*eG*eA*eA*dT*dG*dG*d[5mC]*dA*dG*dG*dG*dT*dT*e[5mC]*eT*eG*eT*eG; antisense) [compound 547723]”: the “% inhibition” value is recorded as 53%.
As to “547724 (eG*eA*eT*eG*e[5mC]*dA*dT*d[5mC]*d[5mC]*dA*dA*d[5mC]*dA*d[5mC]*dT*eT*eA*e[5mC]*e[5mC]*e[5mC]; antisense) [compound 547724]”, the “% inhibition” value came out at 16%.
Still for that read-out and setting: under “547725 (eA*eT*eT*eG*eG*dT*dG*dG*dT*dG*dG*dG*dA*dT*dT*eG*eG*eT*eG*eG; antisense) [compound 547725]” stands 26%; under “547726 (eG*e[5mC]*eA*eG*eG*dA*dT*dT*dG*dG*dT*dG*dG*dT*dG*eG*eA*eA*eT*eT; antisense) [compound 547726]”, 0%; under “547727 (eT*eG*eG*e[5mC]*eA*dG*dG*dA*dT*dT*dG*dG*dT*dG*dG*eT*eG*eG*eA*eA; antisense) [compound 547727]”, 0%.
Take “547729 (eG*eT*eG*eA*eG*dA*dT*dT*dG*dG*dT*dG*dG*dT*dG*eG*eG*eT*eG*eG; antisense) [compound 547729]”: the “% inhibition” value is 45%.
In the case of “547730 (eG*eA*eT*eT*eG*dG*dT*dG*dG*dT*dG*dG*dG*dA*dT*eT*eG*eG*eT*eG; antisense) [compound 547730]”, the “% inhibition” value was determined as 60%.
Turning to “547732 (eA*eG*eG*eA*eT*dT*dG*dG*dT*dG*dG*dT*dG*dG*dG*eA*eT*eT*eG*eG; antisense) [compound 547732]”, the “% inhibition” value amounted to 0%.
In the case of “547733 (eT*eA*eG*eG*eA*dT*dT*dG*dG*dT*dG*dG*dT*dG*dG*eG*eA*eT*eT*eG; antisense) [compound 547733]”, the “% inhibition” value is reported as 0%.
Same read-out and setting: then “547734 (eG*eT*eA*eG*eG*dA*dT*dT*dG*dG*dT*dG*dG*dT*dG*eG*eG*eA*eT*eT; antisense) [compound 547734]”, with 14%.
Regarding “547735 (eG*eG*eT*eA*eG*dG*dA*dT*dT*dG*dG*dT*dG*dG*dT*eG*eG*eG*eA*eT; antisense) [compound 547735]”, the “% inhibition” value is 39%.
In the case of “547736 (eT*eG*eG*eT*eA*dG*dG*dA*dT*dT*dG*dG*dT*dG*dG*eT*eG*eG*eG*eA; antisense) [compound 547736]”, the “% inhibition” value is reported as 54%.
For the substance “547737 (eT*eG*eG*eT*eG*dG*dT*dG*dG*dG*dA*dT*dT*dG*dG*eT*eG*e[5mC]*eT*eG; antisense) [compound 547737]”, the “% inhibition” value was 59%.
With “547738 (eT*eT*eG*eG*eT*dG*dG*dT*dG*dG*dG*dA*dT*dT*dG*eG*eT*eG*e[5mC]*eT; antisense) [compound 547738]”, the “% inhibition” value was determined as 41%.
In the case of “547739 (eA*eT*eT*eG*eG*dT*dG*dG*dT*dG*dG*dG*dA*dT*dT*eG*eG*eT*eG*e[5mC]; antisense) [compound 547739]”, the “% inhibition” value stood at 12%.
